{
  "source": "ChEMBL document CHEMBL5226323",
  "about": "“Targeting Nuclear Receptors in Neurodegeneration and Neuroinflammation” (J Med Chem, 2021)",
  "key": {"Homo sapiens": {"species_on_record": "Homo sapiens", "test": "Selectivity ratio of IC50 for Nurr1-RXRalpha (unknown origin) to IC50 for RXRalpha (unknown origin) by BRET assay"}, "[1]": {"biological_target": "T1, Nuclear receptor subfamily 4 group A member 2/Retinoic acid receptor RXR-alpha (Homo sapiens, UniProt P19793+P43354)", "T1 sequence (P43354 whole entry, one chain of several)": "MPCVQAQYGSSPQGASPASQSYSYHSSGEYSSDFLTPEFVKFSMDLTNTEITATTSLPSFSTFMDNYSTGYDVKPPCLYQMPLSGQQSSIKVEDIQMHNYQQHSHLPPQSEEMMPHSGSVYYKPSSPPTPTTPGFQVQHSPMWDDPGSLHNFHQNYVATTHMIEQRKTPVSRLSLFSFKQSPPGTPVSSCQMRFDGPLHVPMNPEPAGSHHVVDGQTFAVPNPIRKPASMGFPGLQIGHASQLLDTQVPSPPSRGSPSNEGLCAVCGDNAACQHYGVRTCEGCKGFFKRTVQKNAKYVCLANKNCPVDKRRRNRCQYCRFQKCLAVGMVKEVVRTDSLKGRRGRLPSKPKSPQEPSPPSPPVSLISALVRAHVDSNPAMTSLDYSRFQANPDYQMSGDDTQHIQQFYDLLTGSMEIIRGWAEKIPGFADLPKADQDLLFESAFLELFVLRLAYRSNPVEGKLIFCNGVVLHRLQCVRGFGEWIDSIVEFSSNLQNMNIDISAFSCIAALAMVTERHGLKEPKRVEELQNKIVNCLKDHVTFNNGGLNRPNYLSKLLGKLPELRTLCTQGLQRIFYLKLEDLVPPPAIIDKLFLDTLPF", "test": "Inhibition of Nurr1-RXRalpha (unknown origin) by BRET assay", "format": "protein-complex assay"}, "[2]": {"biological_target": "T2, Retinoic acid receptor RXR-alpha (Homo sapiens, UniProt P19793)", "T2 sequence (P19793 whole entry)": "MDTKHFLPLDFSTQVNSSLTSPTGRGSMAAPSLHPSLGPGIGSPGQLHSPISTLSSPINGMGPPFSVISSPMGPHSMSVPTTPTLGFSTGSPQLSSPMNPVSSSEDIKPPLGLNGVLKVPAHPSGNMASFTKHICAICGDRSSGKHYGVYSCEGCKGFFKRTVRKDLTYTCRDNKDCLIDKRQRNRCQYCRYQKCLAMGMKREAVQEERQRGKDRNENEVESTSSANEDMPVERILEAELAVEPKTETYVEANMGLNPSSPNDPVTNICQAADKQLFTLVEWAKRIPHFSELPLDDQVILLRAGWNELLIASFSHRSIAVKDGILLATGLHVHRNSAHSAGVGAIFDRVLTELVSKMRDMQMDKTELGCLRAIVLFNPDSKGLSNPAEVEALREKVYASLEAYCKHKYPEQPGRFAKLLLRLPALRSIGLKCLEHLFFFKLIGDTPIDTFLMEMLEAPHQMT", "test": "Inhibition of RXRalpha (unknown origin) by BRET assay"}, "[3]": {"biological_target": "T2, Retinoic acid receptor RXR-alpha", "test": "Antagonist activity at RXRalpha (unknown origin)"}, "[4]": {"test": "Inhibition of RXR (unknown origin)"}, "[5]": {"biological_target": "T3, Nuclear receptor subfamily 2 group E member 1 (Homo sapiens, UniProt Q9Y466)", "T3 sequence (Q9Y466 whole entry)": "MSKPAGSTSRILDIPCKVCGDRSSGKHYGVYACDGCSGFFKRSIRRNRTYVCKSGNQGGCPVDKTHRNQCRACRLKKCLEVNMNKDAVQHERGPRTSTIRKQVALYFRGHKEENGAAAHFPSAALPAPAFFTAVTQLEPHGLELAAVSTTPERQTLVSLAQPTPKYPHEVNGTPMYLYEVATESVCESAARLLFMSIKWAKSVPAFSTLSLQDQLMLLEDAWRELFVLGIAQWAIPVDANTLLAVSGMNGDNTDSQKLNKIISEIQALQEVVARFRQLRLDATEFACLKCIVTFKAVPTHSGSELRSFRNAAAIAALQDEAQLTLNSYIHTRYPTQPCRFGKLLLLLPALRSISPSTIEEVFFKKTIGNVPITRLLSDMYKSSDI", "test": "Inverse agonist activity at TLX (unknown origin)"}, "[6]": {"biological_target": "T3, Nuclear receptor subfamily 2 group E member 1", "test": "Inverse agonist activity at TLX (unknown origin) assessed as fold activation", "details": "filed as inverse agonist"}, "[7]": {"biological_target": "T4, Retinoic acid receptor RXR-beta (Homo sapiens, UniProt P28702)", "T4 sequence (P28702 whole entry)": "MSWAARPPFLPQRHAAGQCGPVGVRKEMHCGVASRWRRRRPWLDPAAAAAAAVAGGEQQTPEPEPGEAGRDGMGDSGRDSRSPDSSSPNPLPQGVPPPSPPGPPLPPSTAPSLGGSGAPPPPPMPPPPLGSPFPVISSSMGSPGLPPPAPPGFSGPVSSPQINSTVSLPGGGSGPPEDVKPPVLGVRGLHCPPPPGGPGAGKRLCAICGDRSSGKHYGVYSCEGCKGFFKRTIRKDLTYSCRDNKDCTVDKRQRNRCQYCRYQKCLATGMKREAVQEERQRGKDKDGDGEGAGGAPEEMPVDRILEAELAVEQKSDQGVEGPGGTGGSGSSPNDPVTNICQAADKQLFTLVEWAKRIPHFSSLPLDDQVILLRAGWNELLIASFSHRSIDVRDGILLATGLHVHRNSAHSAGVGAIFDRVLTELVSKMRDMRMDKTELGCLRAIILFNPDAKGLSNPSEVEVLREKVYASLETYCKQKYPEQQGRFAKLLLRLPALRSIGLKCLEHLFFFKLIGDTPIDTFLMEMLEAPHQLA", "test": "Inhibition of RXRbeta (unknown origin)"}, "[8]": {"biological_target": "T2, Retinoic acid receptor RXR-alpha", "test": "Inhibition of RXRalpha (unknown origin)"}, "[9]": {"biological_target": "T5, Retinoic acid receptor RXR-gamma (Homo sapiens, UniProt P48443)", "T5 sequence (P48443 whole entry)": "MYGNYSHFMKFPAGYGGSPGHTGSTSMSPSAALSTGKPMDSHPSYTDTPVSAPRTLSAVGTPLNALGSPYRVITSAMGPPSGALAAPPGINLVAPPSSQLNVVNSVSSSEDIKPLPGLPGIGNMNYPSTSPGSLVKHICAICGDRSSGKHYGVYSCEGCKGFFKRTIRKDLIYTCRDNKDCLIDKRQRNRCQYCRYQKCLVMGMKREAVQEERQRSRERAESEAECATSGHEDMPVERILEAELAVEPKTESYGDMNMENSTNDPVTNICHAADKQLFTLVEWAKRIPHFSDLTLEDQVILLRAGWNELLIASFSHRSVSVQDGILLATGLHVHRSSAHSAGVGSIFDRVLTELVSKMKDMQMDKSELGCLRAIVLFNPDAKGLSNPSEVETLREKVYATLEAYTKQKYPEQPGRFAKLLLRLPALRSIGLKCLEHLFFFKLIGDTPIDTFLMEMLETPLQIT", "test": "Inhibition of RXRgamma (unknown origin)"}, "[10]": {"test": "Antagonist activity at NFkappaB in rat RAW264.7 cells"}, "[11]": {"biological_target": "Nuclear receptor subfamily 4 group A member 1 (Mus musculus) (UniProt P12813)", "sequence (P12813 whole entry)": "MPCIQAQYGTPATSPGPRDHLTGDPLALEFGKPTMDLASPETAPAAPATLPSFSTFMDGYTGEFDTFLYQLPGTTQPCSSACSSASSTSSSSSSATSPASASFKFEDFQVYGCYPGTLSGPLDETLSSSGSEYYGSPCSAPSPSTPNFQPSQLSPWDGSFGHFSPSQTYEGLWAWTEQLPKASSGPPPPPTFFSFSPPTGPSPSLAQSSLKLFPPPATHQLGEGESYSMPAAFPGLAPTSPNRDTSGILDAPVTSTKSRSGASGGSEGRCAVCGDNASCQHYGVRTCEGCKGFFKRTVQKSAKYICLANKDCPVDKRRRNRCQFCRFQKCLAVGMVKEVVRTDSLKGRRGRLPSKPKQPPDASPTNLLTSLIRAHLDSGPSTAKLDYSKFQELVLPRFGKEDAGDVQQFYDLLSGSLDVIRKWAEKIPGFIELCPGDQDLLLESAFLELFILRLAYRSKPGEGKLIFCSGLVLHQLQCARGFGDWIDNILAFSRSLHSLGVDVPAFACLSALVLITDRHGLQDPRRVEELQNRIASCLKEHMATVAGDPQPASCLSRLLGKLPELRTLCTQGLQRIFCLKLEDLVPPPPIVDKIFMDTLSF", "test": "Inhibition of full length Nur77 in mouse MN9D cells at 50 uM relative to control", "format": "cell-based"}, "[12]": {"biological_target": "T6, Nuclear receptor subfamily 4immunitygroup A member 1 (Homo sapiens, UniProt P22736)", "T6 sequence (P22736 whole entry)": "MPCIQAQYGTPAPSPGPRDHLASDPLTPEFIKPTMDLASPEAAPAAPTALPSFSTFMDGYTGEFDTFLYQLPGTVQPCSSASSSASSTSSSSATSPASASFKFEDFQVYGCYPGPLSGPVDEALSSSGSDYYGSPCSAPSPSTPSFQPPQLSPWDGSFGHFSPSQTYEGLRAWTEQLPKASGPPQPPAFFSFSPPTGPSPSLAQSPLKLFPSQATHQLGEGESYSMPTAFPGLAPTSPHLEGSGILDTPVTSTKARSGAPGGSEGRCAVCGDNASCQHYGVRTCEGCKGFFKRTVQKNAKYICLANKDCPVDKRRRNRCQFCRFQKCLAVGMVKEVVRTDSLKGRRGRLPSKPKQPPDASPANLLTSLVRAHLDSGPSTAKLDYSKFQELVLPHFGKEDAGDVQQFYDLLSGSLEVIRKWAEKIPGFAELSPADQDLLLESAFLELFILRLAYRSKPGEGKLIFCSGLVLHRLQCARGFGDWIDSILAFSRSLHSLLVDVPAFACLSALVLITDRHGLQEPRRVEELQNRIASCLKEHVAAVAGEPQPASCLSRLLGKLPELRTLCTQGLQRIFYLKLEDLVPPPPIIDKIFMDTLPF", "test": "Inhibition of full length Nur77 in HEK293T cells at 50 uM relative to control", "format": "cell-based"}, "[13]": {"biological_target": "T1, Nuclear receptor subfamily 4 group A member 2/Retinoic acid receptor RXR-alpha", "test": "Inhibition of full-length Nurr1-RXRalpha in human SH-SY5Y cells", "format": "cell-based"}, "[14]": {"test": "Half life in ip dosed mouse brain", "format": "ADME, organism-based"}, "[15]": {"test": "Half life in ip dosed mouse", "format": "ADME, organism-based", "details": "in vivo"}, "[16]": {"biological_target": "T6, Nuclear receptor subfamily 4immunitygroup A member 1", "test": "Inhibition of Gal4-fused Nur77 in HEK293T cells", "format": "cell-based"}, "[17]": {"biological_target": "T7, Retinoic acid receptor RXR-beta (Homo sapiens) (UniProt P28702)", "T7 sequence (whole entry)": "T4 sequence (P28702 whole entry)", "test": "Agonist activity at RXRbeta (unknown origin) assessed as fold activation", "details": "filed as agonist"}, "[18]": {"biological_target": "T8, Retinoic acid receptor RXR-alpha (Homo sapiens) (UniProt P19793)", "T8 sequence (whole entry)": "T2 sequence (P19793 whole entry)", "test": "Agonist activity at RXRalpha (unknown origin) assessed as fold activation", "details": "filed as agonist"}, "[19]": {"biological_target": "T9, Retinoic acid receptor RXR-gamma (Homo sapiens) (UniProt P48443)", "T9 sequence (whole entry)": "T5 sequence (P48443 whole entry)", "test": "Agonist activity at RXRgamma (unknown origin) assessed as fold activation", "details": "filed as agonist"}, "Mus musculus": {"tested_on": "Mus musculus", "test": "Anti-alzheimer activity against APP/PS1 mouse assessed as decrease in A-beta levels in hippocampus at 100 mg/kg, po measured after 14 days by ELISA analysis relative to control", "format": "functional", "set-up": "scale not given: the % may be the effect or the level left", "details": "time 14 day"}, "[20]": {"biological_target": "T6, Nuclear receptor subfamily 4immunitygroup A member 1", "test": "Agonist activity at full length Nur77 in Normal human bronchial epithelial cell assessed as fold increase of receptor transactivation at 10 uM", "format": "cell-based", "details": "filed as agonist"}, "[21]": {"biological_target": "T6, Nuclear receptor subfamily 4immunitygroup A member 1", "test": "Binding affinity to Nur77 (unknown origin) by SPR assay"}},
  "data": [
    {"smiles": "CC(C)c1cccc(-c2cc(/C=C/C(=O)O)ccc2O)c1", "values": [
      {"measurement": "Ratio IC50", "setting": "Homo sapiens", "value": 25},
      {"measurement": "EC50", "setting": "[1]", "value": 0.794, "unit": "nM"},
      {"measurement": "inhibition", "setting": "[1]; concentration not given here", "value": 129, "unit": "%"},
      {"measurement": "pEC50", "setting": "[2]", "value": 7.7}
    ]},
    {"smiles": "CCCCCOc1cc2c(cc1-c1cc(CCC(=O)O)ccc1O)C(C)(C)CCC2(C)C", "values": [
      {"measurement": "EC50", "setting": "[3]", "value": 240, "unit": "nM"}
    ]},
    {"smiles": "Cc1cc2c(cc1C1(c3ccc(C(=O)O)cn3)CC1)C(C)(C)CCC2(C)C", "values": [
      {"measurement": "EC50", "setting": "[4]", "value": 3, "unit": "nM"}
    ]},
    {"smiles": "CC1=C(/C=C/C(C)=C/C=C/C(C)=C/C=O)C(C)(C)CCC1", "note": "[RETINAL]", "values": [
      {"measurement": "EC50", "setting": "[5]", "value": 200, "unit": "nM"},
      {"measurement": "fold change (FC)", "setting": "[6]", "value": 4}
    ]},
    {"smiles": "CCN(c1ccc(C(=O)O)cc1)c1ccc(C(C)C)c(OC(C)C)c1", "values": [
      {"measurement": "EC50", "setting": "[7]", "value": 36, "unit": "nM"},
      {"measurement": "EC50", "setting": "[8]", "value": 32, "unit": "nM"},
      {"measurement": "EC50", "setting": "[9]", "value": 376, "unit": "nM"}
    ]},
    {"smiles": "CCCCCCCCC(=O)c1c(O)cc(O)cc1CC(=O)OCCCCC", "values": [
      {"measurement": "IC50", "setting": "[10]", "value": 1600, "unit": "nM"}
    ]},
    {"smiles": "CC/C=C\\C/C=C\\C/C=C\\C/C=C\\C/C=C\\C/C=C\\CCC(=O)O", "values": [
      {"measurement": "inhibition", "setting": "[11]", "value": 25, "unit": "%"},
      {"measurement": "inhibition", "setting": "[12]", "value": 25, "unit": "%"}
    ]},
    {"smiles": "O=C(O)c1ccc(-c2ccc3cc(O)c(C45CC6CC(CC(C6)C4)C5)cc3c2)cc1", "values": [
      {"measurement": "EC50", "setting": "[5]", "value": 200, "unit": "nM"}
    ]},
    {"smiles": "Cc1ccc(Cl)c(Nc2ccccc2C(=O)O)c1Cl", "note": "[MECLOFENAMIC ACID]", "values": [
      {"measurement": "EC50", "setting": "[13]", "value": 900, "unit": "nM"},
      {"measurement": "half-life", "setting": "[14]", "value": 1.5, "unit": "h"},
      {"measurement": "half-life", "setting": "[15]", "value": 1.5, "unit": "h"},
      {"measurement": "EC50", "setting": "[16]", "value": 4700, "unit": "nM"}
    ]},
    {"smiles": "CCN(c1ccc(C(=O)O)cc1)c1ccc(C(C)C)c(OCC(C)C)c1", "values": [
      {"measurement": "EC50", "setting": "[7]", "value": 23, "unit": "nM"},
      {"measurement": "EC50", "setting": "[8]", "value": 0.58, "unit": "nM"},
      {"measurement": "EC50", "setting": "[9]", "value": 3, "unit": "nM"}
    ]},
    {"smiles": "CC1(C)CC=C(c2ccccc2)c2cc(/C=C/c3ccc(C(=O)O)cc3)ccc21", "values": [
      {"measurement": "EC50", "setting": "[5]", "value": 200, "unit": "nM"},
      {"measurement": "fold change (FC)", "setting": "[6]", "value": 5}
    ]},
    {"smiles": "CC1=C2[C@H](/C=C(\\C)C(=O)O)CC[C@@H](C)[C@H]2CC1", "values": [
      {"measurement": "fold change (FC)", "setting": "[17]", "value": 69},
      {"measurement": "fold change (FC)", "setting": "[18]", "value": 9},
      {"measurement": "fold change (FC)", "setting": "[19]", "value": 4}
    ]},
    {"smiles": "C=C(c1ccc(C(=O)O)cc1)c1cc2c(cc1C)C(C)(C)CCC2(C)C", "note": "[BEXAROTENE]", "values": [
      {"measurement": "Activity", "setting": "Mus musculus", "value": 75, "unit": "%"}
    ]},
    {"smiles": "CCCCC[C@H](O)/C=C/[C@H]1C=CC(=O)[C@@H]1C/C=C\\CCCC(=O)O", "note": "[PROSTAGLANDIN A2]", "values": [
      {"measurement": "fold change (FC)", "setting": "[20]", "value": 15},
      {"measurement": "Kd", "setting": "[21]", "value": 2050, "unit": "nM"}
    ]}
  ]
}
